# Laboratory results taken from patent publication US20160250177A1, “MODIFIED DOCETAXEL LIPOSOME FORMULATIONS AND USES THEREOF” (MALLINCKRODT LLC, priority 2015, published 2016).
# Read-outs that look alike come from different tables or passages of the source.
# Experiments:
# [1] = human, in vivo; for AUC(0-inf) / AUC/Dose / CL / Cmax/Dose / Vss: iv
# [2] = tested on: human PC3 (prostate) tumor xenograft; experiment: Antitumor activity, single IV dose, PC3 xenograft; settings: for Partial Tumor Regression (%) / TGD / TGD (%) / TGI (%) / median survival: single IV
# Experimental: Tumor cell lines were implanted subcutaneously into the flank of nude (immunodeficient) mice and allowed to grow to a fixed size. […] In each case, where possible, doses were selected as providing equivalent levels of toxicity/tolerance. […] Tumor volume was analyzed to determine tumor growth delay (TGD) and partial regression. Mice were removed from the study if they lost 20% of their initial bodyweight or became moribund or if their tumor volume exceeded 2500 mm^3 or the tumor ulcerated. If less than half of the initial cohort of mice remained, that group was no longer graphed or included in further tumor analysis. However, any remaining animals were followed until completion of the in-life observation period and included in a survival analysis.
# [3] = Tissue distribution in mice with A549 xenograft; settings: for Kidney AUC of docetaxel / Liver AUC of docetaxel / Lung AUC of docetaxel / Muscle AUC of docetaxel / Spleen AUC of docetaxel / Tumor AUC of docetaxel: single IV
# Experimental: The plasma pharmacokinetics and distribution were studied in female athymic nude mice each implanted subcutaneously with A549 cells (human non-small cell lung cancer). Once tumors reached a volume of 100-300 mm^3, animals were randomized into 4 groups.
# Three animals were sacrificed at 1, 4, 24, 72 (3 days), 168 (7 days), 216 (9 days), 336 (14 days), 432 (18 days) and 504 hours (21 days) post injection.
# [4] = cited from earlier work
# [5] = clinical; settings: human, in vivo, iv
# [6] = tested on: PC3 human prostate xenograft; settings: for median survival: docetaxel
# Experimental: In another study, athymic male nude mice bearing PC3 human prostate xenograft were given two or four intravenous (IV) doses of PEGylated TD-1 liposome, Taxotere® or saline. Dosing intervals were twenty-one days for two cycles or every four days for four cycles.
# Tumor volume was measured 2-3 times per week using the Biopticon tumor imaging system and tumor volume data was analyzed to determine TGD and partial tumor regression. Survival analysis was conducted and median survival time determined.
# [7] = high dose Taxotere® 100 mg/m^2, van Oosterom 1995
compound,measurement,setting,value
"CC(=O)O[C@@]12CO[C@@H]1C[C@H](O)[C@@]1(C)C(=O)[C@H](O)C3=C(C)[C@@H](OC(=O)[C@H](O)[C@@H](NC(=O)OC(C)(C)C)c4ccccc4)C[C@@](O)([C@@H](OC(=O)c4ccccc4)[C@H]21)C3(C)C [Docetaxel, docetaxel]",CL (mean),[1],14.13 L/h/m^2
same,Cmax and AUC with respect to dose,[1],remained linear with respect to dose
same,Vss (mean),[1],458.8 L/m^2
same,dose proportionality for Cmax and AUCinf,[1],demonstrate dose proportionality
same,AUC(0-inf),[1]; 3 mg/m2,225 ng·h/mL
same,AUC(0-inf),[1]; 6 mg/m2,265 ng·h/mL
same,AUC(0-inf),[1]; 12 mg/m2,721 ng·h/mL
same,AUC/Dose,[1]; 12 mg/m2,60.1 m^2 · ng · h/ml/mg
same,CL,[1]; 12 mg/m2,16.92 l/h/m^2
same,Cmax/Dose,[1]; 12 mg/m2,6.22 m^2 · ng/ml/mg
same,Vss,[1]; 12 mg/m2,257.1 l/m^2
same,AUC(0-inf),[1]; 24 mg/m2,4899 ng·h/mL
same,AUC(0-inf),[1]; 48 mg/m2,5297 ng·h/mL
same,AUC/Dose,[1]; 48 mg/m2,110.4 m^2 · ng · h/ml/mg
same,CL,[1]; 48 mg/m2,13.29 l/h/m^2
same,Cmax/Dose,[1]; 48 mg/m2,3.90 m^2 · ng/ml/mg
same,Vss,[1]; 48 mg/m2,705.3 l/m^2
same,AUC(0-inf),[1]; 80 mg/m2,4798 ng·h/mL
same,AUC(0-inf),[1]; 120 mg/m2,28103 ng·h/mL
same,AUC/Dose,[1]; 120 mg/m2,234.2 m^2 · ng · h/ml/mg
same,CL,[1]; 120 mg/m2,7.15 l/h/m^2
same,Cmax/Dose,[1]; 120 mg/m2,5.85 m^2 · ng/ml/mg
same,Vss,[1]; 120 mg/m2,292.5 l/m^2
same,AUC(0-inf),[1]; 160 mg/m2,16518 ng·h/mL
same,AUC/Dose,[1]; 225 mg/m2,150.8 m^2 · ng · h/ml/mg
same,CL,[1]; 225 mg/m2,6.75 l/h/m^2
same,Cmax/Dose,[1]; 225 mg/m2,4.64 m^2 · ng/ml/mg
same,Vss,[1]; 225 mg/m2,413.4 l/m^2
same,AUC/Dose,[1]; 320 mg/m2,117.6 m^2 · ng · h/ml/mg
same,CL,[1]; 320 mg/m2,9.14 l/h/m^2
same,Cmax/Dose,[1]; 320 mg/m2,5.43 m^2 · ng/ml/mg
same,Vss,[1]; 320 mg/m2,404.0 l/m^2
same,Partial Tumor Regression (%),[2]; docetaxel 9 mg/kg,0%
same,TGD,[2]; docetaxel 9 mg/kg,11
same,TGD (%),[2]; docetaxel 9 mg/kg,42%
same,TGI (%),[2]; docetaxel 9 mg/kg,38%
same,median survival,[2]; docetaxel 9 mg/kg,47 days
same,Partial Tumor Regression (%),[2]; docetaxel 18 mg/kg,33%
same,TGD,[2]; docetaxel 18 mg/kg,41
same,TGD (%),[2]; docetaxel 18 mg/kg,154%
same,TGI (%),[2]; docetaxel 18 mg/kg,91%
same,median survival,[2]; docetaxel 18 mg/kg,81 days
same,Partial Tumor Regression (%),[2]; docetaxel 27 mg/kg,60%
same,TGD,[2]; docetaxel 27 mg/kg,42
same,TGD (%),[2]; docetaxel 27 mg/kg,157%
same,TGI (%),[2]; docetaxel 27 mg/kg,98%
same,median survival,[2]; docetaxel 27 mg/kg,84 days
same,tumor growth,[2]; docetaxel 18 and 27 mg/kg,inhibited tumor growth
same,survival compared to saline,"[2]; docetaxel 18 and 27 mg/kg, all doses of TD-1 liposomes and PEGylated TD-1 liposomes, p<0.05, Mantel-Cox log-rank",increased survival significantly more than saline
same,Kidney AUC of docetaxel,[3]; docetaxel 30 mg/kg,28 µg·h/g
same,Liver AUC of docetaxel,[3]; docetaxel 30 mg/kg,10 µg·h/g
same,Lung AUC of docetaxel,[3]; docetaxel 30 mg/kg,86 µg·h/g
same,Muscle AUC of docetaxel,[3]; docetaxel 30 mg/kg,23 µg·h/g
same,Spleen AUC of docetaxel,[3]; docetaxel 30 mg/kg,77 µg·h/g
same,Tumor AUC of docetaxel,[3]; docetaxel 30 mg/kg,276 µg·h/g
same,time tumor retained measurable levels of docetaxel,[3]; docetaxel 50 mg/kg,216 h
same,Kidney AUC of docetaxel,[3]; docetaxel 50 mg/kg,179 µg·h/g
same,Liver AUC of docetaxel,[3]; docetaxel 50 mg/kg,37 µg·h/g
same,Lung AUC of docetaxel,[3]; docetaxel 50 mg/kg,211 µg·h/g
same,Muscle AUC of docetaxel,[3]; docetaxel 50 mg/kg,64 µg·h/g
same,Spleen AUC of docetaxel,[3]; docetaxel 50 mg/kg,162 µg·h/g
same,Tumor AUC of docetaxel,[3]; docetaxel 50 mg/kg,442 µg·h/g
same,time after which docetaxel concentrations fell below the limits of quantitation in most tissues,"[3]; docetaxel 50 mg/kg, all tissues except tumor",24 h
same,time after which tumor levels of docetaxel fell below the levels of quantitation (1.0 μg/g),[3]; intravenous injection of docetaxel,nine
same,reported t1/2,"[4]; Taxotere® (docetaxel), Clarke & Rivory 1999, Prescribing Information",12 h
same,docetaxel Cmax,[4]; [7],2680 ng/mL
same,docetaxel half-life,[4]; [7],10 to 19 h
same,docetaxel Cmax associated with increased incidence of adverse effects,"[4]; plasma, therapeutic window, FIG. 2",above 0.64 μg/ml
same,Cmax,[5]; 3 mg/m2,15.5 ng/mL
same,half-life,"[5]; 3 mg/m2, t1/2",839 min
same,Cmax,[5]; 6 mg/m2,36.3 ng/mL
same,half-life,"[5]; 6 mg/m2, t1/2",559 min
same,Cmax,[5]; 12 mg/m2,74.7 ng/mL
same,half-life,"[5]; 12 mg/m2, t1/2",736 min
same,Cmax,[5]; 24 mg/m2,149 ng/mL
same,half-life,"[5]; 24 mg/m2, t1/2",3320 min
same,Cmax,[5]; 48 mg/m2,187 ng/mL
same,half-life,"[5]; 48 mg/m2, t1/2",4410 min
same,Cmax,[5]; 80 mg/m2,307 ng/mL
same,half-life,"[5]; 80 mg/m2, t1/2",1730 min
same,Cmax,[5]; 120 mg/m2,702 ng/mL
same,half-life,"[5]; 120 mg/m2, t1/2",2750 min
same,Cmax,[5]; 160 mg/m2,879 ng/mL
same,half-life,"[5]; 160 mg/m2, t1/2",3070 min
same,AUC(0-inf),[5]; 190 mg/m2,18800 ng·h/mL
same,Cmax,[5]; 190 mg/m2,1130 ng/mL
same,half-life,"[5]; 190 mg/m2, t1/2",3120 min
same,AUC(0-inf),[5]; 225 mg/m2,33900 ng·h/mL
same,Cmax,[5]; 225 mg/m2,1040 ng/mL
same,half-life,"[5]; 225 mg/m2, t1/2",3700 min
same,AUC(0-inf),[5]; 270 mg/m2,26200 ng·h/mL
same,Cmax,[5]; 270 mg/m2,1190 ng/mL
same,half-life,"[5]; 270 mg/m2, t1/2",2130 min
same,AUC(0-inf),[5]; 320 mg/m2,37600 ng·h/mL
same,Cmax,[5]; 320 mg/m2,1740 ng/mL
same,half-life,"[5]; 320 mg/m2, t1/2",2450 min
same,AUC(0-inf),[5]; 380 mg/m2,107000 ng·h/mL
same,Cmax,[5]; 380 mg/m2,2900 ng/mL
same,half-life,"[5]; 380 mg/m2, t1/2",4060 min
same,growth of PC3 human prostate xenograft (mean tumor volume over time),"[6]; IV administration, FIG. 8A",dose dependently inhibited growth
same,Partial Tumor Regression (%),[6]; docetaxel 5 mg/kg (q4dx4),0%
same,TGD,[6]; docetaxel 5 mg/kg (q4dx4),34 days
same,TGD (%),[6]; docetaxel 5 mg/kg (q4dx4),213%
same,Partial Tumor Regression (%),[6]; docetaxel 10 mg/kg (q4dx4),80%
same,TGD,[6]; docetaxel 10 mg/kg (q4dx4),69 days
same,TGD (%),[6]; docetaxel 10 mg/kg (q4dx4),431%
same,Partial Tumor Regression (%),[6]; docetaxel 30 mg/kg (q21dx2),100%
same,TGD,[6]; docetaxel 30 mg/kg (q21dx2),73 days
same,TGD (%),[6]; docetaxel 30 mg/kg (q21dx2),456%
same,Partial Tumor Regression (%),[6]; docetaxel 60 mg/kg (q21dx2),100%
same,TGD,[6]; docetaxel 60 mg/kg (q21dx2),86 days
same,TGD (%),[6]; docetaxel 60 mg/kg (q21dx2),538%
same,median survival,[6]; 1st dose group listed (5 mg/kg q4dx4 by order of Table 8),62 days
same,median survival,[6]; 2nd dose group listed (10 mg/kg q4dx4 by order of Table 8),88 days
same,median survival,[6]; 3rd dose group listed (30 mg/kg q21dx2 by order of Table 8),93 days
same,median survival,[6]; 4th dose group listed (60 mg/kg q21dx2 by order of Table 8),107 days
